Type: physicochemical
Procedure: The stability of crystalline amlodipine free base bulk and amlodipine free base tablets was assessed by storing samples for up to 6 or 12 weeks at 25°C/60%RH, 40°C/75%RH and 50°C/20%RH. Changes were monitored using a stability-indicating HPLC method. Results were calculated by normalised peak area (npa). Degradants were identified by comparison of their relative retention times against impurity standards.

In the case of `CCOC(=O)C1=C(COCCN)NC(C)=C(C(=O)OC)C1c1ccccc1Cl` (stereo not shown) [crystalline amlodipine free base, 2-[(2-aminoethoxy)]-methyl-4-(2-chlorophenyl)-3-ethoxycarbonyl-5-methoxycarbonyl-6-methyl-1,4-dihydropyridine], the stability is reported as “stability was demonstrated”.
